Patent US12350247B2, “Use of APE1/Ref-1 inhibitors for treatment of retinal diseases” (Indiana University Research and Technology Corporation, priority 2017, dated 2025)
Like-named read-outs stand apart in the source and are kept apart here.

Columns and labels:
CA9 [1] = assay: CA9 protein expression in 10.05 3D tumor spheroids (Western blot); format: cell-based, human; details: 3D spheroid cultures, 12 days, treated on days 4 and 8
Protocol: (§1) Western Blot Analysis: Immunoblotting was performed using antibodies for APE1/Ref-1 (Novus Biologicals; Littleton, CO), CA9 (Santa Cruz; Dallas, Texas), Actin (NeoMarkers; Fremont, CA), and Vinculin (Sigma; St. Louis, MO).
The effect of APE1/Ref-1 redox inhibition on CA9 protein expression was also measured in 3D tumor spheroids.

CAFs (CAF19 cells) = assay: 3D spheroid co-culture, CAF signal (green channel); details: read-out: LC50, 3D Cultures, CAFs
CA9 [2] = assay: Hypoxia-induced CA9 mRNA and protein levels in 10.05 monolayer cells; format: cell-based, human; details: 10.05 cells, 0.2% O2 for 24 hours
Protocol: as §1
The comparative Ct method was used to quantitate mRNA levels using RPLP0 and B2M as reference genes. The primers for CA9, RPLP0, and B2M are commercially available (Applied Biosystems). Experiments were performed in triplicate for each sample.

Panc10.05 [3] = assay: 3D tumor spheroid culture growth (fluorescence intensity); details: read-out: LC50; 3D Cultures, Tumor Alone, Panc10.05, D12 curves
[4] = system: Pa03C and Panc10.05 tumor cells; assay: 3D spheroid / co-culture model of pancreatic cancer (both patient lines); details: for single agent efficacy on 3D spheroid growth: treated on days 4 and 8, FIG. 17
Protocol: Pa03C cells were plated into 3D cultures alone or with CAF19 cells.
Pa03C and Panc10.05 tumor cells were grown in 3D cultures in the presence of CAFs. Spheroids were treated with either single agents, vehicle (DMSO) or combination of targeted agents on days 4 and 8 (black arrows), and the intensity of tumor (red) and CAF (green) were quantified as described in Example 7 every 3-4 days in culture.

Panc10.05 [5] = assay: Monolayer cytotoxicity under hypoxia (alamarBlue); format: cell-based
Description: (§2) To determine target selectivity, analogs of APX3330, APX2009 and APX2014, and an analog of SLC-0111, FC12-531A, were used.

Pa03C [6] = assay: Monolayer cytotoxicity under hypoxia (alamarBlue); format: cell-based; details: N = 3, read-out: LC50 (the source's name)
Description: as §2

Pa03C [7] = assay: 3D tumor spheroid culture growth (fluorescence intensity); details: read-out: LC50; 3D Cultures, Tumor Alone, Pa03C, D12 curves
10.05 cells = assay: Intracellular pH assay (pHrodo Red AM) in hypoxic 10.05 cells; format: cell-based, human; details: 0.2% O2 48 hrs; up to 50 μM APX3330, 100 μM SLC-0111; 8 APX2009, 5 μM APX2014
Description: Therefore, the APX3330 analogs, APX2009 and APX2014, were used to determine whether APE1/Ref-1 redox inhibition alone can shift intracellular pH in hypoxic PDAC cells given a sufficiently potent inhibitor.

Pa03C [8] = system: Pa03C
Panc10.05 [9] = system: Panc10.05
[10] = system: bladder cell line BLCAb001; assay: 96-hour viability assay, APX2014 with cisplatin; format: cell-based; details: APX2014 doses of 6 mM-3 mM in combination with cisplatin
Protocol: The BLCAb001 (cisplatin resistant) cell line was treated with increasing concentrations of APX2014 and cisplatin as single agents and in combination and assayed in a 96-hour viability assay. The concentrations of APX2014 range from 6 mM-0.38 mM in combination with the indicated cisplatin doses (FIG. 36A). […] The concentrations of Cisplatin as a single agent range from 2.5 mM-0.04 mM (FIG. 36B).

[11] = system: mouse colon cell line MC-38; assay: Alamar blue cytotoxicity assay; format: cell-based; details: single agent, 72 hours
Protocol: MC-38 cells (Yunhua Liu) were seeded in a 96-well tissue culture plate at 2000 cells/well in DMEM+10% FBS and grown overnight at 37° C., 5% CO2. […] Cells were incubated for 72 hours at 37° C., 5% CO2. Media was exchanged with DMEM+5% FBS+10% Alamar blue fluorescent cell viability indicator (Invitrogen™) and incubated 4 hours at 37° C., 5% CO2 and then read on a fluorescent reader (Synergy™ H4 BioTek). […] Data shown is the average of 3 separate cytotoxicity assays; each assay normalized to media only control.

[12] = system: human carcinoma colon cell line HCT-116; assay: Alamar blue cytotoxicity combination assay (CalcuSyn); format: cell-based; details: only one APX2014 dosage (12.5 uM), spiked with 75 uM CPI-613
Protocol: HTC-116 (Yunhua Liu) was seeded in a 96-well tissue culture plate at 2000 cells/well in DMEM+10% FBS and grown overnight at 37° C., 5% CO2. Drug Media DMEM+5% FBS was added at dosages of APX3330 (Apexian) in a 5-point spread from 75 uM to 6.3 uM and spiked with CPI-613 (Apexbio Technology) at 75 uM, or 50 uM, or alone for single agent. Cells were incubated for 72 hours at 37° C., 5% CO2. Media was exchanged with DMEM+5% FBS+10% Alamar blue fluorescent cell viability indicator (INVITROGEN™) and incubated 4 hours at 37° C., 5% CO2 and then read on a fluorescent reader (SYNERGY™ H4 BioTek). […] depicts Chou-Talalay Index (CI) of dose combinations (CalcuSyn). FIG. 32E depicts synergistic drug combinations (CalcuSyn) of APX3330 spiked with 50 uM CPI-613 or 75 uM CPI-613. […] Data shown is the average of 3 separate cytotoxicity assays; each assay normalized to media only control.
HTC-116 (Yunhua Liu) was seeded in a 96-well tissue culture plate at 2000 cells/well in DMEM+10% FBS and grown overnight at 37° C., 5% CO2. Drug Media DMEM+5% FBS was added at dosages of APX3330 (Apexian) from 100 uM to 0.4 uM in a 10-point spread and spiked with CPI-613 (Apexbio Technology) at 100 uM, or 75 uM, or alone for single agent. Cells were incubated for 72 hours at 37° C., 5% CO2. Media was exchanged with DMEM+5% FBS+10% Alamar blue fluorescent cell viability indicator (INVITROGEN™) and incubated 4 hours at 37° C., 5% CO2 and then read on a fluorescent reader (SYNERGY™ H4 BioTek). […] FIG. 33D depicts Chou-Talalay Index (CI) of dose combinations (CalcuSyn). FIG. 33E depicts synergistic drug combinations (CalcuSyn) of APX3330 spiked with 100 uM CPI-613 or 75 uM CPI-613. […] Data shown is the average of 3 separate cytotoxicity assays; each assay normalized to media only control.
HTC-116 (Yunhua Liu) was seeded in a 96-well tissue culture plate at 2000 cells/well in DMEM+10% FBS and grown overnight at 37° C., 5% CO2. Drug Media DMEM+5% FBS was added at dosages of APX2014 (Apexian) in a 5-point spread from 25 uM to 1.6 uM and spiked with CPI-613 (Apexbio Technology) at 75 uM, or 50 uM, or alone for single agent. Cells were incubated for 72 hours at 37° C., 5% CO2. Media was exchanged with DMEM+5% FBS+10% Alamar blue fluorescent cell viability indicator (INVITROGEN™) and incubated 4 hours at 37° C., 5% CO2 and then read on a fluorescent reader (SYNERGY™ H4 BioTek). […] FIG. 34D depicts Chou-Talalay Index (CI) of dose combinations (CalcuSyn). FIG. 34E depicts synergistic drug combinations (CalcuSyn) of APX2014 spiked with 50 uM CPI-613 or 75 uM CPI-613. Drug combination synergy could not be ascertained at APX2014 dosages when spiked with 50 uM CPI-613. […] Data shown is the average of 3 separate cytotoxicity assays; each assay normalized to media only control.
HTC-116 (Yunhua Liu) was seeded in a 96-well tissue culture plate at 2000 cells/well in DMEM+10% FBS and grown overnight at 37° C., 5% CO2. Drug Media DMEM+5% FBS was added at dosages of APX3330 (Apexian) from 100 uM to 0.4 uM in a 10-point spread and spiked with CB-839 (Sigma-Aldrich) at 1000 nM, or 500 nM, or alone for single agent. Cells were incubated for 72 hours at 37° C., 5% CO2. Media was exchanged with DMEM+5% FBS+10% Alamar blue fluorescent cell viability indicator (INVITROGEN™) and incubated 4 hours at 37° C., 5% CO2 and then read on a fluorescent reader (SYNERGY™ H4 BioTek). FIG. 35A depicts APX3330 and CB-839 single agent effects. FIG. 35B depicts APX3330 and CB-839 synergistic combo effects. […] FIG. 35E depicts synergistic drug combinations (CalcuSyn) of APX3330 spiked with 1000 nM CB-839 or 500 nM CB-839 (5-pt only). […] Data shown is the average of 3 separate cytotoxicity assays; each assay normalized to media only control.

PDAC cells and CAFs = assay: 3D co-culture cytotoxicity, Ref-1 inhibition with docetaxel or trametinib; format: cell-based
Description: Standard 3D co-culture assays as prepared in Arpin, C. et al., Mol Cancer Ther 15, 794-805 (2016); Logsdon, P. et al., Mol Cancer Ther 15, 2722-2732 (2016); Cardoso, A. et al., PloS one 7, e4742 (2012); and Kelley, M. et al., The Journal of pharmacology and experimental therapeutics 359, 300-309 (2016) were used to evaluate the cytotoxicity of the combinations on tumor cells as well as cancer-associated fibroblasts.

[13] = system: patient-derived Pa03C tumors with CAFs; assay: Flank co-culture model of PDAC, APX3330 and Ruxolitinib; format: in vivo, mice; details: treatment alone, 50 mg/kg, day 28
Protocol: Treatment of the implanted tumors started on day 11 post implant. Particularly, the co-cultures implanted included 2.5×10^6 tumor cells +/−5 ×10^6 CAFs, providing a 1:2 ratio of tumor cell to CAF. […] The mice were then administered either 50 mg/kg APX3330 BID in 4% Cr:EtOH, 50 mg/kg Rux SID pm in 4% Cr:EtOH, or combinations of the agents. Treatment schedule consisted of treating for 5 days and then giving 2 days off treatment until the tumors reached an average size of 2000 mm^3.

[14] = system: patient-derived PDAC cell lines (10.05, Pa02C, Pa03C); assay: SLC-0111 efficacy in PDAC cell lines under hypoxic conditions; format: cell-based; details: Homo sapiens, all three patient-derived PDAC cell lines, 0.2% O2, read-out: LC50 during hypoxia exposure
Protocol: The efficacy of SLC-0111, a CA9 inhibitor that has recently completed a Phase I clinical trial, was evaluated in different PDAC cell lines under hypoxic conditions for comparison.

[15] = co-culture with Pa03C, D12 curves
[16] = co-culture with Panc10.05, D12 curves
[17] = Homo sapiens, Panc1005, Panc10.05, N = 3, read-out: LC50 (the source's name)

CCC/C(=C\C1=C(OC)C(=O)c2ccccc2C1=O)C(=O)N(CC)CC [APX2009, (2E)-2-[(3-methoxy-1,4-dioxo-1,4-dihydronaphthalen-2-yl)methylidene]-N,N-diethylpentanamide]
fold less of the concentration compared to APX3330 to attenuate CA9 expression (CA9 [1]): 10 fold | CC50 (CAFs (CAF19 cells); [15]): 13.1 µM | CC50 (CAFs (CAF19 cells); [16]): 14.1 µM | fold less required vs. APX3330 to decrease hypoxia-induced CA9 mRNA and protein levels (CA9 [2]): 10 fold | CC50 (Panc10.05 [3]): 9.4 µM | tumor killing in combination with napabucasin ([4]; 3D spheroid model (tumor and CAF)): synergistic tumor killing effect | single agent efficacy on 3D spheroid growth [4]: as effective as APX3330 | CC50 (Panc10.05 [5]; [17]): 4.9 µM | CC50 (Pa03C [6]; Homo sapiens): 6.7 µM | CC50 (Pa03C [7]): 6.9 µM | effect on intracellular pH as single agent (10.05 cells): decreased intracellular pH

CCC/C(=C\C1=C(OC)C(=O)c2ccccc2C1=O)C(=O)NOC [APX2014, (2E)-2-[(3-methoxy-1,4-dioxo-1,4-dihydronapthalen-2-yl)methylidene]-N-methoxypentanamide]
fold less of the concentration compared to APX3330 to attenuate CA9 expression (CA9 [1]): 10 fold | CC50 (Pa03C [8]): 1100 nM | fold less required vs. APX3330 to decrease hypoxia-induced CA9 mRNA and protein levels (CA9 [2]): 10 fold | CC50 (Panc10.05 [9]): 300 nM | single agent efficacy on 3D spheroid growth [4]: as effective as APX3330 | CC50 (Panc10.05 [5]; Panc10.05, N = 3, read-out: LC50 (the source's name)): 1.3 µM | CC50 (Pa03C [6]): 3.5 µM | combination index [10]: > 1.0 | EC10 [11]: 2.0 µM | EC30 [11]: 3.0 µM | drug combination synergy (Chou-Talalay, CalcuSyn) [12]: Synergy was observed | effect on intracellular pH as single agent (10.05 cells): decreased intracellular pH

CC(=O)O[C@@]12CO[C@@H]1C[C@H](O)[C@@]1(C)C(=O)[C@H](O)C3=C(C)[C@@H](OC(=O)[C@H](O)[C@@H](NC(=O)OC(C)(C)C)c4ccccc4)C[C@@](O)([C@@H](OC(=O)c4ccccc4)[C@H]21)C3(C)C [Docetaxel]
cytotoxicity in combination with Ref-1 inhibition (PDAC cells and CAFs): more effective than either agent alone

N#CC[C@H](C1CCCC1)n1cc(-c2ncnc3[nH]ccc23)cn1 [Rux, Ruxolitinib, reference compound]
average tumor size [13]: 1750 mm³

NS(=O)(=O)c1ccc(NC(=O)Nc2ccc(F)cc2)cc1 [SLC-0111, reference compound]
CC50 (CAFs (CAF19 cells); [15]): 97 µM | CC50 (CAFs (CAF19 cells); [16]): 98.2 µM | CC50 (Panc10.05 [3]): 64 µM | CC50 (Panc10.05 [5]; [17]): 63.9 µM | CC50 (Pa03C [6]; Homo sapiens): 90.8 µM | CC50 [14]: < 100 µM | CC50 (Pa03C [7]): 51.9 µM | effect on intracellular pH as single agent (10.05 cells): did not affect

CC(=O)Nc1cccc(-n2c(=O)n(C3CC3)c(=O)c3c(Nc4ccc(I)cc4F)n(C)c(=O)c(C)c32)c1 [Trametinib]
cytotoxicity in combination with Ref-1 inhibition (PDAC cells and CAFs): more effective than either agent alone
